Reference: article PMC7377239, “Cardiovascular Effects of Polychlorinated Biphenyls and Their Major Metabolites” (Environmental Health Perspectives, 2020)
Like-named read-outs stand apart in the source and are kept apart here.

Legend:
[1] = system: iCell endothelial cells (human iPSC-derived ECs); assay: Tube formation (tubulogenesis) assay in iCell endothelial cells, 18 h; assay type: cell-based; conditions: Homo sapiens, Endothelial cell, 18 hr; for activity at 0.1 µM: 0.10 µM
Procedure, shortened: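 Tube formation was measured by calcein AM imaging after overnight compound exposure (37°C, 0.5% DMSO vehicle) of human iPSC-derived ECs, 7,500/well, on reduced-growth-factor Geltrex in starvation medium. Vehicle-normalized data fitted to four-parameter logistic; POD set at one vehicle SD; without response, 100 μM taken as NOAEL.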

[2] = system: iCell endothelial cells (human iPSC-derived ECs); assay: High-content imaging cytotoxicity in iCell endothelial cells, 24 h; assay type: cell-based; conditions: Homo sapiens, Endothelial cell, 24 hr; for viability at 0.1 µM / activity at 0.1 µM: 0.10 µM
Procedure, shortened: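 Readouts were vehicle-normalised and fitted to a four-parameter logistic model. POD was set at one SD beyond 0.5% DMSO control means, and 100 µM was assigned when no response was seen. Cells were monolayers of iCell endothelial cells imaged after 24 h compound exposure using nuclear, mitochondrial and calcein dyes.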

[3] = iPSC-EC tube formation, 0.00 µM control = 100.00, read-out: endo.mtl.18hr
[4] = iPSC-EC tube formation, 0.00 µM control = 100.00, read-out: endo.tlps.18hr
[5] = iPSC-EC tube formation, 0.00 µM control = 100.00, read-out: endo.tta.18hr
[6] = iPSC-EC tube formation, 0.00 µM control = 100.00, read-out: endo.ttl.18hr
[7] = iPSC-EC, 0.00 µM control = 100.00, read-out: endo.cyto.24hr
[8] = iPSC-EC, 0.00 µM control = 100.00, read-out: endo.mito.24hr
[9] = iPSC-EC, 0.00 µM control = 100.00, read-out: endo.mitoint.24hr
[10] = iPSC-EC, 0.00 µM control = 100.00, read-out: endo.nma.24hr
[11] = iPSC-EC, 0.00 µM control = 100.00, read-out: endo.tc.24hrs

## O=C1C=CC(=O)C(c2ccc(Cl)cc2)=C1 [4-Cl-BQ, 2-(4-Chlorophenyl)benzo-2,5-quinone]
[1]; endothelial cells (endo), tube formation mtl, read-out: POD endo.mtl.18hr
  minimal effective concentration: 0.38 µM
[1]; endothelial cells (endo), tube formation tlps, read-out: POD endo.tlps.18hr
  minimal effective concentration: 1.04 µM
[1]; endothelial cells (endo), tube formation tta, read-out: POD endo.tta.18hr
  minimal effective concentration: 23 µM
[1]; endothelial cells (endo), tube formation ttl, read-out: POD endo.ttl.18hr
  minimal effective concentration: 11.8 µM
[1]; [3]
  activity at 0.01 µM: 102%
  activity at 0.1 µM: 96.3%
  activity at 1 µM: 77.5%
  activity at 10 µM: 68.9%
  activity at 100 µM: 59.2%
[1]; [4]
  activity at 0.01 µM: 96%
  activity at 0.1 µM: 114%
  activity at 1 µM: 70.1%
  activity at 10 µM: 45%
  activity at 100 µM: 9.31%
[1]; [5]
  activity at 0.01 µM: 156%
  activity at 0.1 µM: 135%
  activity at 1 µM: 111%
  activity at 10 µM: 99.9%
  activity at 100 µM: 0.43%
[1]; [6]
  activity at 0.01 µM: 153%
  activity at 0.1 µM: 131%
  activity at 1 µM: 109%
  activity at 10 µM: 77.6%
  activity at 100 µM: 0.77%
[1]; iPSC-EC tube formation, top concentration 100.00 µM, read-out: endo.mtl.18hr POD
  minimal effective concentration: 0.38 µM
[1]; iPSC-EC tube formation, top concentration 100.00 µM, read-out: endo.tlps.18hr POD
  minimal effective concentration: 1.04 µM
[1]; iPSC-EC tube formation, top concentration 100.00 µM, read-out: endo.tta.18hr POD
  minimal effective concentration: 23 µM
[1]; iPSC-EC tube formation, top concentration 100.00 µM, read-out: endo.ttl.18hr POD
  minimal effective concentration: 11.8 µM
[2]; endothelial cells (endo), cyto, read-out: POD endo.cyto.24hr
  minimal effective concentration: 3.82 µM
[2]; endothelial cells (endo), mito, read-out: POD endo.mito.24hr
  minimal effective concentration: 3.82 µM
[2]; endothelial cells (endo), mitoint, read-out: POD endo.mitoint.24hr
  minimal effective concentration: 14.2 µM
[2]; endothelial cells (endo), nma, read-out: POD endo.nma.24hr
  minimal effective concentration: 13 µM
[2]; endothelial cells (endo), tc, read-out: POD endo.tc.24hr
  minimal effective concentration: 2.56 µM
[2]; [7]
  viability at 0.01 µM: 90%
  viability at 0.1 µM: 89.7%
  viability at 1 µM: 93.1%
  viability at 10 µM: 87.8%
  viability at 100 µM: 12.1%
[2]; [8]
  activity at 0.01 µM: 90.5%
  activity at 0.1 µM: 89.9%
  activity at 1 µM: 93.1%
  activity at 10 µM: 87.7%
  activity at 100 µM: 3.06%
[2]; [9]
  activity at 0.01 µM: 114%
  activity at 0.1 µM: 103%
  activity at 1 µM: 99.3%
  activity at 10 µM: 95.2%
  activity at 100 µM: 30.1%
[2]; [10]
  activity at 0.01 µM: 105%
  activity at 0.1 µM: 104%
  activity at 1 µM: 103%
  activity at 10 µM: 102%
  activity at 100 µM: 161%
[2]; [11]
  viability at 0.01 µM: 90%
  viability at 0.1 µM: 89.7%
  viability at 1 µM: 93.1%
  viability at 10 µM: 87.8%
  viability at 100 µM: 31.3%
[2]; iPSC-EC, top concentration 100.00 µM, read-out: endo.cyto.24hr POD
  minimal effective concentration: 3.82 µM
[2]; iPSC-EC, top concentration 100.00 µM, read-out: endo.mito.24hr POD
  minimal effective concentration: 3.82 µM
[2]; iPSC-EC, top concentration 100.00 µM, read-out: endo.mitoint.24hr POD
  minimal effective concentration: 14.2 µM
[2]; iPSC-EC, top concentration 100.00 µM, read-out: endo.nma.24hr POD
  minimal effective concentration: 13 µM
[2]; iPSC-EC, top concentration 100.00 µM, read-out: endo.tc.24hrs POD
  minimal effective concentration: 2.56 µM
